Laboratory results published in PubChem BioAssay AID449762 (Southern Research Specialized Biocontainment Screening …, 2010).
Inconclusive results are not listed.

Tested on: M. tuberculosis H37Rv growth inhibition, 7H9 media
Test: M. tuberculosis growth inhibition, HTS (AID 449762);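 note: bacterial growth assessed after seven days of incubation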
Details: for IC90: measured here: IC90 growth inhibition

SMILES | IC50 | IC90
Ic1ccccc1CN[C@@H]1C2CCN(CC2)[C@@H]1C(c1ccccc1)c1ccccc1 | 29.5 µM | 38.4 µM
CCOC(=O)c1nnc(-c2ccccc2)nc1NCc1ccccc1 | 14.6 µM | > 100 µM
CCc1nnc(NS(=O)(=O)c2ccc(N/C=C\C(=O)c3cccc(OC)c3)cc2)s1 | 16.2 µM | 35.5 µM
CCc1ccc(N=Nc2ccc(O)c3[nH]cnc23)cc1 | 15.4 µM | > 100 µM
COc1cc2ccccc2cc1C(=O)Nc1ccc(Cc2ccncc2)cc1 | 2.26 µM | 16.8 µM
Cc1ccc(S(=O)(=O)NC(CC(C)C)C(=O)N2CCN(C/C=C/c3ccccc3)CC2)cc1 (stereo not drawn) | 46.8 µM | 52.7 µM
NC(=O)c1cccn1-c1ncc(C(F)(F)F)cc1Cl | 6.8 µM | 16.6 µM
Cc1ccnc(Sc2ccc([N+](=O)[O-])cc2[N+](=O)[O-])n1 | 7.7 µM | 15.1 µM
NN(Cc1ccccc1)C(=S)Nc1ccc(Cl)c(Cl)c1 | 33.8 µM | 58.1 µM
COC(=O)CCCCC1SCC(NC(=O)c2ccccc2)C1=O (stereo not drawn) | 8.79 µM | 15.4 µM
c1ccc(CN2CCC3(CCCc4ccccc43)CC2)cc1 | 10.3 µM | 13.6 µM
O=C(CSc1cccc[n+]1[O-])c1cccs1 | 12 µM | 16.5 µM
Cc1cccc(/C=C2/S/C(=N/N=C3\CC4CCC3(C)C4(C)C)NC2=O)c1 (stereo not drawn) | 7.92 µM | > 100 µM
CCOC(=O)CNc1ccc(C(=O)OCC)cc1[N+](=O)[O-] | 8.45 µM | 22.6 µM
Cc1ccc(-c2ccc(C3C(C#N)=C(N)Oc4n[nH]c(C)c43)o2)cc1 (stereo not drawn) | 24.5 µM | 52 µM
O=C1C2C(c3ccccc3)(C(=O)N1c1ccc(Cl)cc1)C2(c1ccccc1)c1ccccc1 (stereo not drawn) | 11.5 µM | 12.4 µM
O=C(Nc1nc(-c2cc(Cl)sc2Cl)cs1)c1cccs1 | 29.3 µM | > 100 µM
Cc1[nH]c2ccccc2c1/C=N/Nc1nc(Nc2ccccc2)nc(N2CCOCC2)n1 | 2.88 µM | 10 µM
CCc1cccc2c(=O)c(C(=O)N3CCOCC3)c[nH]c12 | 6.62 µM | 14.2 µM
COc1cc(C)c(/C=C/C(C)=C/C=C/C(C)=C/C(=O)O)c(C)c1C | 1.56 µM | 6.76 µM
Cc1ccc(C)c(N2CCN(C(=S)Nc3ccc4nc(N5CCN(C)CC5)cc(C)c4c3)CC2)c1 | 38.7 µM | 50.9 µM
Cc1cc(C)c2ccc(NN)nc2c1O | 3.6 µM | 4.95 µM
O=C(CSc1n[nH]c(-c2ccccc2)n1)Nc1ccc(Br)cn1 | – | > 100 µM

SMILES | IC50 | IC90
Nc1ccc(C(=O)OCCCc2nc3cc4ccccc4cc3[nH]2)cc1 | 45.6 µM | 51.7 µM
Cc1cccc(OCc2n(CC(=O)OC3CC(C)CCC3C(C)C)c3ccccc3[n+]2C)c1 (stereo not drawn) | 7.43 µM | 9.6 µM
O=C(c1ccc([N+](=O)[O-])s1)N1CCN(c2ccc(C(F)(F)F)cn2)CC1 | < 0.2 µM | < 0.2 µM
c1ccc(-n2cnc3cc(NCc4cccs4)ccc32)cc1 | 85.6 µM | 97.2 µM
CC/C(=C(\c1ccc(O)cc1)c1ccc(OCCN(C)C)cc1)c1ccccc1 | 22.5 µM | 35.4 µM
C=CCn1cccc(/C=C/C(=O)c2ccc(C(C)(C)C)cc2)c1=S | 27.8 µM | 56.5 µM
CCN(CC)CCCNc1nc2cc(OC)c(OC)cc2c2nc(-c3ccccc3)nn12 | 4.71 µM | 6 µM
CCCN(CC1CC1)C(=O)COC(=O)c1ccc2c(c1)C(=O)N(c1ccc(OCC)cc1)C2=O | 35.2 µM | > 100 µM
O=Cc1ccc(-c2ccc(Cl)cc2Cl)[nH]1 | – | > 100 µM
C/C(=N/NC(=O)c1ccccn1)c1c[nH]c2ccccc12 | 6.03 µM | 11.8 µM
NC(=S)N/N=C/c1ccccc1OCCSc1ccc(Cl)cc1 | 45.7 µM | > 100 µM
FC(F)(F)c1cc(CO[C@@H]2CCCN[C@@H]2c2ccccc2)cc(C(F)(F)F)c1 | 24.5 µM | 28.8 µM
COc1ccccc1C1CC(c2ccc(Cl)cc2)Nc2ncnn21 (stereo not drawn) | 11 µM | 17.7 µM
CN(CC(=O)Nc1ccc(OC(F)(F)F)cc1)C(=O)/C=C/c1cc2c(cc1[N+](=O)[O-])OCO2 | 30.2 µM | 37.9 µM
COc1cc2c(cc1OC)C1(Nc3c-2c(-c2ccccc2)nn3-c2ccccc2)C(=O)Nc2ccccc21 (stereo not drawn) | 90.5 µM | > 100 µM
CCNC(=S)NN=C1c2ccccc2-c2ccccc21 | 11.2 µM | 12.7 µM
CC(=O)Nc1sc2c(c1-c1nc3ccccc3s1)CCN(C(C)C)C2 | 5.88 µM | 6.66 µM
Cc1cc(OC(=O)c2cccs2)c2c3c(c(=O)oc2c1)CCCC3 | 3.04 µM | 3.52 µM
O=C(Nc1cc(C(F)(F)F)ccc1Cl)C(Sc1cccc[n+]1[O-])c1ccccc1 (stereo not drawn) | 39.2 µM | 47.9 µM
COc1ccc(COC(=O)CCNC(=O)c2ccc(Cl)cc2)cc1 | 58.7 µM | > 100 µM
O=C(NCc1nnnn1-c1ccc(F)cc1)c1ccc([N+](=O)[O-])o1 | 16.5 µM | 74.1 µM
Nc1ccc(-c2nc3ccc(-c4nc5ccccc5o4)cc3[nH]2)cc1 | 31.4 µM | 41.6 µM
CC(C)C[C@H](NC(=O)c1nc[nH]c1C(=O)NC1CCN(C(=O)OC(C)(C)C)CC1)C(=O)OCc1ccccc1 | 22.4 µM | 25.4 µM

SMILES | IC50 | IC90
CC(C)c1nnc(NC(=O)CCC(=O)N2CCN(c3ccc(Cl)cc3)CC2)s1 | 11.8 µM | 29.5 µM
CCOC(=O)C1(CCOc2ccccc2)CCN(Cc2cccc(-n3cccn3)c2)CC1 | 25.4 µM | 28.8 µM
O=C(/C=C\c1cccs1)N1CCN(Cc2ccc3c(c2)OCO3)CC1 | 1.48 µM | 5.53 µM
O=C(OCc1ccc([N+](=O)[O-])cc1)c1cc2ccccc2oc1=O | 7.82 µM | 23.6 µM
Cc1cc(C)cc(NC(=O)c2ccc(Cn3nc(C)c(Cl)c3C)o2)c1 | 30.8 µM | 41.9 µM
Cc1nn(-c2ccccc2)c(Cl)c1/C=C/C(=O)c1ccccc1 | 49.1 µM | 56.7 µM
O=c1[nH]c(=O)n(C2CCCO2)cc1F (stereo not drawn) | 29 µM | 55.3 µM
COc1ccc(NC(=O)CSC2CCCCC2)cc1 | 35.2 µM | > 100 µM
COc1ccc(-c2csc3nc(-c4ccccc4OC)oc(=O)c23)cc1 | < 0.2 µM | 24.1 µM
CC(C(Sc1ccccc1N)c1ccccc1)[N+](=O)[O-] (stereo not drawn) | 19.4 µM | > 100 µM
CCOC(=O)/C(=N/Nc1ccccc1)c1csc(Nc2ccccc2)n1 | 34.6 µM | > 100 µM
CN1CCN(C2=Cc3ccc(Cl)cc3Sc3ccc(F)cc32)CC1 | 22.7 µM | 32.9 µM
CNC[C@H](Cc1cccc2ccccc12)NC[C@H](CCSC)NCC1CCC(C(C)(C)C)CC1 (stereo partly drawn) | 22.4 µM | 24.2 µM
CCCCn1c(=O)c(C(=O)Nc2ncccc2C)c(O)c2ccccc21 | 10.3 µM | 15.8 µM
c1ccc(Cn2c3ccccc3c3nnc(SCCN4CCCCC4)nc32)cc1 | 21.3 µM | 34.5 µM
Cc1ccc2nc(-c3ccncc3)cc(-c3ccccc3)c2c1 | 36.1 µM | 47.2 µM
CCOC(=O)c1cc(/C(C)=N/OC(=O)c2ccc(C(C)(C)C)cc2)on1 | 13.1 µM | 24.8 µM
CCCOC(=O)/C(=C\c1ccc([N+](=O)[O-])o1)NC(=O)c1ccccc1 | 11 µM | 16.2 µM
COC(=O)CCc1sc(Nc2ccc(Br)cc2)nc1-c1ccc(OC)cc1 | 26 µM | 44.1 µM
CCN(Cc1ccccc1)c1ccc(/C=N/N=C(N)N)cc1 | 17.1 µM | 30.1 µM
CCc1ccc(N=C2NC(=O)/C(=C/c3cc(OC)c(O)c(OC)c3)S2)cc1 | 33.2 µM | > 100 µM
CC(OC(=O)c1cc(Cl)ccc1[N+](=O)[O-])C(=O)NC(C)c1ccc(F)cc1 (stereo not drawn) | 22.8 µM | 26 µM
O=c1c2cc(-c3ccccc3)sc2ncn1/N=C/c1ccco1 | 82.7 µM | > 100 µM

SMILES | IC50 | IC90
CC(C)C1N=C(c2ccc3c(c2)OCO3)CC(c2ccccc2O)N1 (stereo not drawn) | 20.8 µM | 30.4 µM
COc1ccc(-c2ccc(C#N)c(SCC(=O)OCc3ccccc3)n2)cc1OC | 20.1 µM | 69.5 µM
CC(C)(C)OC(=O)NNC(=S)NC1CCCCC1 | 21.2 µM | 23.8 µM
C(=N\Nc1nc(-c2ccccc2)cs1)/c1ccncc1 | 47.3 µM | 66.4 µM
COc1ccc(-c2ccnc3nc(N4CCN(c5ccccc5)CC4)nn23)cc1 | 36.4 µM | 47.9 µM
O=C(N/N=C/c1ccc([N+](=O)[O-])o1)c1sc2ccccc2c1Cl | 2.65 µM | 4.6 µM
CCN(CC)C(=S)SSC(=S)N(CC)CC | 0.78 µM | 1.53 µM
Cc1ccc(C2CC(c3cccs3)=NN2C(=O)CCl)cc1 (stereo not drawn) | 0.39 µM | 1.39 µM
CN(Cc1ccc(Br)cc1)C(=O)CCN1C(=O)c2cccc([N+](=O)[O-])c2C1=O | 29.1 µM | > 100 µM
CC(C)(C)c1cc(-c2nc(N)nc(N)n2)c(O)c(C(C)(C)C)c1 | 75.9 µM | 88.9 µM
O=C1CN(CC(=O)N2CCCCC2)c2ccccc2O1 | 23.6 µM | 27.4 µM
CCCCNC(=S)N/N=C/c1cccc(OCC)c1O | 6.01 µM | 6.79 µM
CCc1cc(C(=O)Nc2nc(-c3ccccn3)cs2)sc1C | 1.26 µM | 15.3 µM
CCOc1ccc(N2C=Nc3ccc(OCC)cc3C2)cc1 | 44 µM | 89.4 µM
C/C(=C1/C(=O)N(c2ccc([N+](=O)[O-])cc2)N=C1c1ccccc1)N(C)C | 21.8 µM | 31.4 µM
CCOC(=O)C1=C(C)NC(SCC(=O)Nc2nc(C)cs2)=C(C#N)C1c1cccs1 (stereo not drawn) | 34.4 µM | 48.7 µM
O=C(c1ccc(-c2ccccc2)c(F)c1)C1CCCN(C(=O)c2cncs2)C1 (stereo not drawn) | 35.9 µM | 46.8 µM
O=[N+]([O-])c1ccc(S(=O)(=O)c2ccccc2)nc1 | 1.01 µM | 2.08 µM
Cc1nn(-c2ccccc2)c(Cl)c1C(=O)Nc1nnc(C2CCCCC2)s1 | 17.3 µM | > 50 µM
Cc1cc(-c2ccc(Cl)cc2)c2cnn(C(C)C)c2n1 | 25.5 µM | 44.1 µM
CCn1c2ccccc2c2cc(CN3CCN(Cc4cc(OC)ccc4O)CC3)ccc21 | 16.8 µM | 23.5 µM
